Data on two compounds can be found in patent US8551496B2, “Boswellia low polar gum resin extract and its synergistic compositions” (priority 2010, dated 2013).

One experiment addresses 5-lipoxygenase (5-LOX). The following applies: read-out: IC50 for the inhibition of 5-LOX; background, prior art; cited from earlier work.
Experiment [1] has as its system Freund's Complete Adjuvant induced paw edema. The experiment is described as follows: Freund's Complete Adjuvant induced arthritis model, inhibition of paw edema. The experiment is classed as in vivo. Conditions: 10 mg/kg body weight daily (positive control); FCA-induced Sprague Dawley rats; vs CMC control.

Turning to “3-O-Acetyl-11-keto-β-Boswellic acid [AKBA]”, on 5-lipoxygenase (5-LOX), the IC50 was 1500 nM.
Take `C[C@]12C=CC(=O)C=C1CC[C@@H]1[C@@H]2[C@@H](O)C[C@@]2(C)[C@H]1CC[C@]2(O)C(=O)CO` [Prednisolone]: the “Reduction in Paw edema” value in experiment [1] was found to be 46%.

In general, IC50 refers to the midpoint of a concentration-inhibition curve.
